In US5149704A, “Platelet activating antagonists” (Abbott Laboratories, priority 1991, dated 1992):
Where a name gives a salt, the structure may show the parent alone.

Biological target: T1, PAF receptor (Oryctolagus cuniculus, UniProt G1TEI7)
T1 construct: platelet membranes were prepared by centrifugation and washing; tissue Pel-Freez (Rogers, AR); host or cells: rabbit platelets from citrated whole blood (membranes)
Assay: PAF receptor binding assay ([^3 H]C18 -PAF, rabbit platelet membranes)
Conditions: 0.6 nM [^3 H]C18 -PAF, 60 min, 22-23 °C, Ki from IC50 by Cheng and Prusoff
Description: The ability of representative compounds of the present invention to inhibit PAF activity was determined in an in vitro test using the following method. Citrated whole rabbit blood was obtained from Pel-Freez (Rogers, AR). Rabbit platelets were prepared by centrifugation and washing. The platelets were lysed by freeze-thawing and sonication; platelet membranes were prepared by centrifugation and washing. Final membrane preparations were stored frozen in 10 mM Tris/5 mM MgCl2 /2 mM EDTA (TME buffer, pH 7.0) with 0.25M sucrose added for membrane stabilization. […] The final volume of the assay was 100 μl. The assay was conducted in […] (Millipore Corp.) filtration plates; incubation time was for 60 minutes at room temperature (22°-23° C.). "Specific binding" was operationally defined as the arithmetic difference between "total binding" of 0.6 nM [^3 H]C18 -PAF (in the absence of added PAF) and "nonspecific binding" (in the presence of 1 μM PAF). After the prescribed incubation, platelet membranes were filtered under vacuum, and washed with 1 millilitre of "binding buffer". The filters were dried and removed. The bound radioactivity was quantitated with a Berthold TLC-Linear Analyzer model LB2842. Dose-response curves of inhibition of specific [^3 H]C18 -PAF binding by test compounds were conducted in triplicate, with at least four doses covering the active range. Experiments were repeated at least once. IC50 values (concentration producing 50% inhibition) were determined by point-to-point evaluation. Ki values of inhibitory binding constants were calculated according to the method of Cheng and Prusoff [Biochem. Pharmacol. 22 (1973) 3099-3108] whereby [formula] The values of Ki for representative compounds of the present invention appear in Table 1.

T1 sequence (G1TEI7 1-342): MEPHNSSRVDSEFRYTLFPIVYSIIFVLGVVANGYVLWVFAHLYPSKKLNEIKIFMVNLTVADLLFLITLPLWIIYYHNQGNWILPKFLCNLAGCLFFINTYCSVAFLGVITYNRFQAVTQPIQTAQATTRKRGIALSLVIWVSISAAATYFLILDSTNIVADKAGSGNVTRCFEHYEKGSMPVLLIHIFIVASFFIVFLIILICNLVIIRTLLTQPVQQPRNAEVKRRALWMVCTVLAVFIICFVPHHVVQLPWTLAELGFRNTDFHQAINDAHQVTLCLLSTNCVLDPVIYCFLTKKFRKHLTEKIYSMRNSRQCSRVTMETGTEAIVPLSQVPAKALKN

Compound | Ki
CN1C(CNc2cccc(C(=O)c3ccccc3)c2)CSC1c1cccnc1 (stereo not drawn) [Example 9, N-(3-benzoylphenyl)[2-(3-pyridinyl)-3-methylthiazolid-4-yl]methylamine dihydrochloride] | 1400 nM
COc1cc(C(=O)c2cccc(NC[C@H]3CC[C@@H](c4cccnc4)N3)c2)cc(OC)c1OC (relative stereo) [13 (cis), N-[3-(3,4,5-trimethoxybenzoyl)phenyl][2-(3-pyridyl)-pyrrolidin-5-yl]methylamine] | 2300 nM
O=C(c1ccccc1)c1ccc(NCC2CSC(c3cccnc3)N2)cc1 (stereo not drawn) [Example 7, N-(4-benzoylphenyl)2-(3-pyridinyl)thiazolid-4-ylmethylamine] | 1200 nM
COc1cc(C(=O)c2cccc(NCC3CSC(c4cccnc4)N3C(=O)OC(C)(C)C)c2)cc(OC)c1OC (single isomer, unassigned) [Example 1a] | 6770 nM
CC(C)(C)OC(=O)N1C(CNc2cccc(C(=O)c3ccccc3)c2)CSC1c1cccnc1 (stereo not drawn) [Example 3, N-(3-benzoylphenyl)2-(3-pyridinyl)-3-tert-butoxycarbonylthiazolid-4-ylmethylamine] | 8700 nM
COc1cc(C(=O)c2cccc(NCC3CSC(c4cccnc4)N3C(=O)OC(C)(C)C)c2)cc(OC)c1OC (single isomer, unassigned) [Example 1b] | 13000 nM
COc1cc(C(=O)c2cccc(NC[C@H]3CC[C@H](c4cccnc4)N3)c2)cc(OC)c1OC (relative stereo) [13 (trans), N-[3-(3,4,5-trimethoxybenzoyl)phenyl][2-(3-pyridyl)-pyrrolidin-5-yl]methylamine] | 8700 nM
CN(CC1CSC(c2cccnc2)N1)c1cccc(C(=O)c2ccccc2)c1 (stereo not drawn) [Example 12, N-(3-benzoylphenyl) N-methyl 2-(3-pyridinyl)thiazolid-4-ylmethylamine trihydrochloride] | 3400 nM

The next compounds have a lower Ki than those just listed; values first:

Ki | Compound
900 nM | N-[3-(3,4,5-trimethoxybenzoylphenyl]2-(3-pyridinyl)dithiolan-4-ylmethylamine dihydrochloride [Example 10]
750 nM | O=C(NCC1CSC(c2cccnc2)S1)Nc1cccc(C(=O)c2ccccc2)c1 (stereo not drawn) [Example 16, N-[2-(3-pyridinyl)dithiolan-4-ylmethyl]N'-(3-benzoylphenyl)urea]
430 nM | O=C(c1ccccc1)c1ccccc1NCC1CSC(c2cccnc2)N1 (stereo not drawn) [Example 6, N-(2-benzoylphenyl)2-(3-pyridinyl)thiazolid-4-ylmethylamine]
190 nM | c1ccc(Oc2ccc(NCC3CSC(c4cccnc4)N3)cc2)cc1 (stereo not drawn) [Example 8, N-(4-phenoxyphenyl)2-(3-pyridinyl)thiazolid-4-ylmethylamine]
160 nM | O=C(c1ccccc1)c1cccc(NCC2CSC(c3cccnc3)S2)c1 (stereo not drawn) [Example 11, N-(3-benzoylphenyl)2-(3-pyridinyl)dithiolan-4-ylmethylamine]
150 nM | O=C(NCC1CSC(c2cccnc2)N1)Nc1cccc(C(=O)c2ccccc2)c1 (stereo not drawn) [Example 15, N-[2-(3-pyridinyl)thiazolid-4-ylmethyl]N'-(3-benzoylphenyl)urea dihydrochloride]
110 nM | COc1cc(C(=O)c2cccc(NC(=O)NCC3CSC(c4cccnc4)N3)c2)cc(OC)c1OC (stereo not drawn) [Example 14, N-[2-(3-pyridinyl)thiazolid-4-ylmethyl]-N'-[3-(3,4,5-trimethoxybenzoyl)phenyl]urea]
38 nM | O=C(c1ccccc1)c1cccc(NCC2CSC(c3cccnc3)N2)c1 (stereo not drawn) [Example 5, N-(3-benzoylphenyl)2-(3-pyridinyl)thiazolid-4-ylmethylamine trihydrochloride]
23 nM | O=C(c1ccccc1)c1cccc(NCC2CSC(c3cccnc3)N2)c1 (stereo not drawn) [Example 4, N-(3-benzoylphenyl)2-(3-pyridinyl)thiazolid-4-ylmethylamine]
10 nM | COc1cc(C(=O)c2cccc(NCC3CSC(c4cccnc4)N3)c2)cc(OC)c1OC (stereo not drawn) [Example 2, N-[3-(3,4,5-trimethoxybenzoylphenyl]2-(3-pyridinyl)thiazolid-4-ylmethylaminetrihydrochloride]
